# Assay results reported in paper PMC11672125 (JACS Au, 2024).
# Target: Brd4 (Homo sapiens, UniProt O60885)
# Assay: Brd4 degradation by immunoblotting in PC-3 cells
# Assay type: cell-based
# Details: siRNA-VHL 50 nM 72 h, then 30 nM SHD913 for 4 h
substance,measurement,value
siVHL: siRNA against VHL; sense sequence 5′- GGCUCAACUUCGACGGCGA −3′ (antisense UCGCCGUCGAAGUUGAGCC; chemistry not given here),effect of siVHL pretreatment on SHD913-mediated Brd4 degradation,reversed SHD913-mediated Brd4 degradation
